# Assay results from patent US11918621B2, “Methods and treatments using toll-like receptor agonists to mitigate hematopoietic myeloid loss, increase gastrointestinal recovery and reduce tumor growth” (priority 2017, dated 2024).
# Entries after “also recorded” stand apart in the source; their conditions may differ. Peptide text beside a SMILES is read from it. * marks the point of attachment. X1 = CCCCCCCCCCCCCCCC(=O)OCC(C*)OC(=O)CCCCCCCCCCCCCCC
# B1: G-CSF: granulocyte colony-stimulating factor, approved radiation countermeasure (protein, UniProt P09919 31-207, looked up)
# Granulocyte …: TPLGPASSLPQSFLLKCLEQVRKIQGDGAALQEKLVSECATYKLCHPEELVLLGHSLGIPWAPLSSCPSQALQLAGCLSQLHSGLFLYQGLLQALEGISPELGPTLDTLQLDVADFATTIWQQMEELGMAPALQPTQGAMPAFASAFQRRAGGVLVASHLQSFLEVSYRVLRHLAQP
# B2: Flagellin FliC: TLR5 agonist (protein, UniProt P06179 2-495, looked up)
# Flagellin: AQVINTNSLSLLTQNNLNKSQSALGTAIERLSSGLRINSAKDDAAGQAIANRFTANIKGLTQASRNANDGISIAQTTEGALNEINNNLQRVRELAVQSANSTNSQSDLDSIQAEITQRLNEIDRVSGQTQFNGVKVLAQDNTLTIQVGANDGETIDIDLKQINSQTLGLDTLNVQQKYKVSDTAATVTGYADTTIALDNSTFKASATGLGGTDQKIDGDLKFDDTTGKYYAKVTVTGGTGKDGYYEVSVDKTNGEVTLAGGATSPLTGGLPATATEDVKNVQVANADLTEAKAALTAAGVTGTASVVKMSYTDNNGKTIDGGLAVKVGDDYYSATQNKDGSISINTTKYTADDGTSKTALNKLGGADGKTEVVSIGGKTYAASKAEGHNFKAQPDLAEAAATTTENPLQKIDAALAQVDTLRSDLGAVQNRFNSAITNLGNTVNNLTSARSRIEDSDYATEVSNMSRAQILQQAGTSVLAQANQVPQNVLSLLR
# Columns and labels:
# [1] = system: mice treated with FSL-1 post TBI; assay: Late effects of radiation: long-term survivors, MRI of tissues; assay type: in vivo; details: survivors of more than 600 days
# Description: MRI was used to detect multiple tissues in these survivors, such as brain, gut, kidney or spleen. […] FSL-1 is found to accelerate hematopoietic cell recovery in bone marrow, spleen and periphery, and augments systemic levels of hematopoiesis stimulating factors (G-CSF).
# B16 melanoma tumor cells = assay: B16 melanoma tumor model with cisplatin chemotherapy
# Procedure: The impact of combining FSL-1 treatment with chemotherapy as a therapeutic against cancer was also tested. In this study, B16 melanoma tumor cells (50,000) in matrigel matrix were implanted into the flank (SC) of wild type animals and were allowed to grow 10 days to palpation (˜3-5 mm in diameter). Mice were then treated with chemotherapy agent cisplatin (intravenous IV, 100 μg/mouse) with and without FSL-1 (SC, 40 μg/mouse). Changes in tumor volume (ellipsoidal volume calculation of ½ width*width*length, mm^3) were monitored along with changes in body weight and condition.
# [2] = system: irradiated male C57BL/6 mice; assay: Radiomitigation activity of TLR2 ligands after TBI; assay type: in vivo; details: IP injection 24 hr post TBI
# Procedure: The radiomitigation activity of TLR2 ligands was delineated (FIGS. 1C and 1D), including FSL-1, by irradiating male C57BL/6 mice and treating (IP injections) with either FSL-1, Pam2CSK4 (Pam2Cys-SKKKK, TLR2/6 ligand), or Pam3CSK4 (Pam3Cys-SKKKK, TLR1/2 ligand) at 24 hours (hr) post TBI.
# irradiated mice = details: only when injected subcutaneously daily from day 1 to 16 (16 doses); cited from earlier work
# [3] = system: C57BL/6 mice exposed to 9.2 Gy gamma radiation (total body irradiation); assay: Survival and clinical score after lethal total body irradiation, TLR ligands given IP; assay type: in vivo; details: 9.2 Gy TBI, IP injection one day after radiation, survival over 30 days
# Procedure: To examine the role of TLR ligands as radio-mitigators, FSL-1 (TLR2/6 ligand) was first compared with other TLR ligands (FIGS. 1A and 1B). In this experiment, C57BL/6 mice were exposed to 9.2 Gy gamma radiation (total body irradiation, or TBI) using 137-Cesium irradiator and then the mice were treated with TLR ligands via intraperitoneal (IP) injections one day after radiation. The impact of CpG-ODN2395 (CpG, TLR9 agonist), Flagellin FliC (Fla, TLR5 agonist), MPLA (TLR4 agonist) or FSL-1 (Pam2[…], TLR2/6 agonist) in comparison to mice treated with physiological water (no treatment, NT) was examined. Survival was monitored over 30 days and clinical scores were recorded. […] Eight independent experiments have been completed, each showing the survival rate of FSL-1-treated mice ranged from 50% to 100% with the mean rate of 80%. The lowest one is presented herein.
# The Clinical Score is based on changes to body condition that included body weight, body temperature, physical appearance, grooming, posture, activity/behavior, appetite and hydration. Supplementation with wet feed, subcutaneous fluids, long sipper tubes, were provided as needed.
molecule,measurement,setting,value
CCCCCCCCCCCCCCCC(=O)OCC(CSC[C@H](N)C(=O)NCC(=O)N[C@@H](CC(=O)O)C(=O)N1CCC[C@H]1C(=O)N[C@@H](CCCCN)C(=O)N[C@@H](Cc1c[nH]cn1)C(=O)N1CCC[C@H]1C(=O)N[C@@H](CCCCN)C(=O)N[C@@H](CO)C(=O)N[C@@H](Cc1ccccc1)C(=O)O)OC(=O)CCCCCCCCCCCCCCC (stereo partly shown) [FSL-1] (H-C(X1)GDPKHPKSF-OH),"MRI of tissues (brain, gut, kidney, spleen)",[1],no physiologic changes
same,symptoms of disease in long-term survivors,[1],no symptoms of any diseases; also recorded: without any symptoms of leukemia or other diseases
same,body weight,"B16 melanoma tumor cells; mouse, in vivo",maintained weight for nearly 2 weeks following treatment
N.N.[Cl][Pt][Cl] [cisplatin],animals reaching the 2 cm tumor diameter endpoint,B16 melanoma tumor cells; by day 19,two
same,body condition,"B16 melanoma tumor cells; mouse, in vivo",reduced body condition
same,body weight,"B16 melanoma tumor cells; mouse, in vivo",dramatically lost weight after day 19
Pam2Cys-SKKKK [Pam2CSK4],survival,[2],promoted survival
Pam3Cys-SKKKK [Pam3CSK4],survival,[2],promoted survival
B1,survival of irradiated mice,irradiated mice,increase the survival
B2,protection from radiation-induced death,[3],did not show any protection
